Experimental data taken from PubChem BioAssay (NCI).
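Values below derive from 48-hour exposures of cells grown in 96-well plates, with endpoints linearly interpolated between the two concentrations bracketing the appropriate inhibition level. GI50: concentration for 50% inhibition of growth. TGI: concentration producing complete growth inhibition.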

How the values were obtained:
Test in all cases: NCI-60 cell line screen, 48 h
OVCAR-5 ovarian = test system: OVCAR-5 ovarian
OVCAR-3 ovarian = test system: OVCAR-3 ovarian
SNB-75 CNS = test system: SNB-75 CNS
SR leukemia = test system: SR leukemia
OVCAR-8 ovarian = test system: OVCAR-8 ovarian
HCC-2998 colon = test system: HCC-2998 colon
UO-31 renal = test system: UO-31 renal
COLO 205 colon = test system: COLO 205 colon
UACC-257 melanoma = test system: UACC-257 melanoma
ACHN renal = test system: ACHN renal

| SMILES | TGI (OVCAR-5 ovarian) | TGI (OVCAR-3 ovarian) | TGI (SNB-75 CNS) | TGI (SR leukemia) | TGI (OVCAR-8 ovarian) | TGI (HCC-2998 colon) | TGI (UO-31 renal) | TGI (COLO 205 colon) | TGI (UACC-257 melanoma) | TGI (ACHN renal) | GI50 (OVCAR-5 ovarian) | GI50 (OVCAR-3 ovarian) | GI50 (SNB-75 CNS) | GI50 (SR leukemia) | GI50 (OVCAR-8 ovarian) | GI50 (HCC-2998 colon) | GI50 (UO-31 renal) | GI50 (COLO 205 colon) | GI50 (UACC-257 melanoma) | GI50 (ACHN renal) |
| --- | --- | --- | --- | --- | --- | --- | --- | --- | --- | --- | --- | --- | --- | --- | --- | --- | --- | --- | --- | --- |
| CC1(c2ccc[n+](Cc3ccccc3)c2)OCCO1 | > 100 µM | > 100 µM | > 100 µM | > 100 µM | > 100 µM | > 100 µM | > 100 µM | > 100 µM | > 100 µM | > 100 µM |  |  |  |  |  |  |  |  |  |  |
| O=C1C(=O)c2ccccc2C(O)=C1CCCc1ccc(Oc2ccccc2)cc1 | > 100 µM | 24.9 µM | 73.9 µM | > 100 µM | > 100 µM | 74.3 µM | 32.6 µM | 32.1 µM | 23.9 µM | 76.5 µM |  |  |  |  |  |  |  |  |  |  |
| COC(=O)[C@H]1CO[C@H]2C/C(C)=C/CC/C(C)=C/CC[C@@]3(C)O[C@@H]3C[C@H]21 | > 50 µM | 47.3 µM | 39.2 µM | 27.1 µM | > 50 µM | 17.9 µM | > 50 µM | 22.6 µM | > 50 µM | > 50 µM |  |  |  |  |  |  |  |  |  |  |
| CCCC(=O)NC(Nc1ccc(S(=O)(=O)Nc2nc(C)cc(C)n2)cc1)(C(F)(F)F)C(F)(F)F | > 100 µM | > 100 µM | > 100 µM | > 100 µM | > 100 µM | > 100 µM | > 100 µM | > 100 µM | > 100 µM | > 100 µM |  |  |  |  |  |  |  |  |  |  |
| N#CC(c1nc2ccccc2nc1Cl)S(=O)(=O)c1ccccc1 (stereo unspecified) | > 100 µM | > 100 µM | > 100 µM | > 100 µM | > 100 µM | > 100 µM | > 100 µM | > 100 µM | > 100 µM | > 100 µM |  |  |  |  |  |  |  |  |  |  |
| COc1ccc2c(c1)c(CC(=O)O)c(C)n2C(=O)c1ccc(Cl)cc1 | > 100 µM | > 100 µM | > 100 µM | > 100 µM | > 100 µM | > 100 µM | > 100 µM | > 100 µM | > 100 µM | > 100 µM |  |  |  |  |  |  |  |  |  |  |
| COc1cc(/C=C2\Sc3scc(-c4cccc([N+](=O)[O-])c4)[n+]3C2=O)cc(OC)c1OC | 55.6 µM | 44.8 µM | 8.77 µM | 5.11 µM | > 100 µM | 27.5 µM | 19 µM | 15.1 µM | 25.2 µM | 28.1 µM |  |  |  |  |  |  |  |  |  |  |
| COc1ccccc1NC(=O)CC(=O)N1N=C(C)C(N=Nc2ccc(C(=O)O)cc2)C1=O (stereo unspecified) | > 100 µM | > 100 µM | 6.06 µM | > 100 µM | > 100 µM | > 100 µM | > 100 µM | > 100 µM | > 100 µM | > 100 µM |  |  |  |  |  |  |  |  |  |  |
| Cc1cc(N2CCCC2)nc(N(CCNc2ccnc3cc(Cl)ccc23)Cc2ccco2)n1 | > 100 µM | 42.3 µM | 60.7 µM | 4.67 µM | > 100 µM | 56.7 µM | 39.8 µM | 4.38 µM | > 100 µM | > 100 µM | 4.93 µM | 3.4 µM | 10.7 µM | 1.8 µM | 4.35 µM | 4.58 µM | 2.58 µM | 1.8 µM | 10.8 µM | 6.53 µM |
| C#CCSC(C=C=C)P(=O)(OC(C)C)OC(C)C (stereo unspecified) | > 100 µM | > 100 µM | > 100 µM | > 100 µM | > 100 µM | 75.1 µM | > 100 µM | > 100 µM | > 100 µM | > 100 µM |  |  |  |  |  |  |  |  |  |  |
| CC1(C)C2C=CC1(C)C1(CC2)OCCO1 (stereo unspecified) | > 100 µM | > 100 µM | > 100 µM | > 100 µM | > 100 µM | > 100 µM | > 100 µM | > 100 µM | > 100 µM | > 100 µM |  |  |  |  |  |  |  |  |  |  |
| COC(=O)c1cc2ccc(OC(C)=O)c(OC(C)=O)c2cn1 | 34.2 µM | 30.9 µM | 42 µM | 6.98 µM | 22.2 µM | 44.6 µM | 30 µM | 36.3 µM | 29.2 µM | 31.5 µM |  |  |  |  | 10.1 µM |  |  |  |  |  |
| CC[N+]1(C)CCC(O)(c2ccc(Cl)c(Cl)c2)C(C(=O)c2ccc(Cl)c(Cl)c2)C1 (stereo unspecified) | > 10 µM | > 10 µM | > 10 µM | > 10 µM | > 10 µM | > 10 µM | > 10 µM | > 10 µM | > 10 µM | > 10 µM |  |  |  |  |  |  |  |  |  |  |
| O=c1oc2ccccc2cc1-c1cn2cc(Cl)ccc2n1 | 33.3 µM | 2.51 µM | > 21.2 µM | > 39.2 µM | 18.6 µM | 21.7 µM | 6.79 µM | > 50.3 µM | > 45.9 µM | 3.31 µM |  |  |  |  |  |  |  |  |  |  |
| CCOC(=O)c1c(N2CCCC2)ncn(Cc2ccccc2)c1=S | > 100 µM | > 100 µM | > 100 µM | > 100 µM | > 100 µM | > 100 µM | > 100 µM | > 100 µM | > 100 µM | > 100 µM |  |  |  |  |  |  |  |  |  |  |
| COc1ccc(NC(C)=O)cc1N1C(=O)/C(=C\c2cc(OC)c(OC)c(OC)c2)SC1c1ccccc1 (stereo unspecified) | > 100 µM | > 100 µM | > 100 µM | > 100 µM | > 100 µM | > 100 µM | > 100 µM | > 100 µM | > 100 µM | > 100 µM |  |  |  |  |  |  |  |  |  |  |
| C/C=C(/C)C(=O)O[C@H](C[C@@H](C)[C@H]1CC(c2ccoc2)OC1=O)[C@@]1(C)C(=O)CCC2O[C@]21C (stereo partly specified) | > 100 µM | > 100 µM | > 100 µM | > 100 µM | > 100 µM | > 100 µM | > 100 µM | > 100 µM | > 100 µM | > 100 µM |  |  |  |  |  |  |  |  |  |  |
| OC(CCNCc1ccccc1)c1ccc2ccccc2c1 (stereo unspecified) | 75.4 µM | 29.5 µM | 75.6 µM | 98.3 µM | 45.9 µM | 62.8 µM | 32.3 µM | 47.2 µM | 32.2 µM | 41.5 µM |  |  |  |  |  |  |  |  |  |  |
